Data: patent US20180327807A1, “ASSAY FOR DETERMINING ANTIBIOTICS IN WASTE” (DSM Sinochem Pharmaceuticals Netherlands B.V., priority 2015, published 2018)

Test system: microorganism in the agar layer
Assay: Delvotest SP NT microbial growth inhibition assay, colour of the agar indicator, with or without added milk
Type: cell-based
Conditions: 2 ppb test solution, with added milk or added water, 60 to 210 min
Experimental: From all samples solutions 100 μl is brought in the Delvotest SP NT Ampoule with an Eppendorf pipet of 100 μl. With the point of the pipet the tube cover top of the ampoule will be penetrated and the 100 μl is added to the ampoule. Put the ampoules for 2.5 h in a water bath of 65° C. Seal the ampoule with tape. After 2.5 h the ampoules are removed from the water bath. Check if the blanks are yellow, if not prolong the time in the water bath with 30 min. Yellow is negative and purple is positive. Positive means there is antimicrobial activity present in the sample which is higher than 2 ppb (calculated as penicillin G K). Two samples, a blank (water) and 2 ppb penicillin G K test solution were analysed using commercially available (DSM Food Specialties B.V., Delft, The Netherlands) Delvotest SP NT analogous to the supplier's manual. Two ampoules were filled with blank sample. To one milk (regular low-fat milk from a Dutch supermarket was used in the present example) was added according to the instruction as outlined in Example 1 and to the other the same amount of water was added. […] The ampoules filled with sample were incubated at 64° C.+/−2° C.) and the colour of the agar in the ampoules was visually recorded at several points in time. […]

For `CC1(C)S[C@@H]2[C@H](NC(=O)Cc3ccccc3)C(=O)N2[C@H]1C(=O)[O-].[K+]` [Penicillin G K test solution, penicillin G K], the “colour change of the indicator (inhibiting effect on growth of the microorganism)” value was “do not show any colour change”.
